PubChem BioAssay AID651770 (Broad Institute, 2012)
“And” between values parts separate entries of the source, which are not always exact repeats. Equal entries are not always repeated. Inconclusive results are not listed. The source made the active and inactive calls.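 The calls were made as follows: active = fitted dose curve reaches a 40% decrease at a concentration up to twice the top valid dose; inconclusive = flat curve showing 30 to 70% expression rise, or poor fit; inactive = the rest.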

Key:
[1] = system: SK-MEL-5, TRPM1 mRNA qPCR (delta-delta-Ct), overnight; test: TRPM1 transcript decrease in melanoma cells – cell-based, SK-MEL-5, RT-qPCR, dry powder samples, orthogonal assay for MITF inhibitor project, dose response (AID 651770)
[2] = as above; conditions: SK-MEL-5, TRPM1 mRNA qPCR (delta-delta-Ct), overnight; at 35 µM (top of the series)

Row | Structure (SMILES) | AC40 [1] | TRPM1 expression decrease [2]
1 | NC1=C(NS(=O)(=O)c2cccs2)C(=O)c2ccccc2C1=O | 987 nM | 
2 | O=C1C=C(NS(=O)(=O)c2ccc(Br)cc2)C(=O)c2ccccc21 | 850 nM | 
3 | NC1=C(NC(=O)c2ccccc2)C(=O)c2ccccc2C1=O | 722 nM | 
4 | O=C1C=C(Nc2ccc([N+](=O)[O-])c(C(F)(F)F)c2)C(=O)c2ccccc21 | 302 nM | 
5 | O=C1C=C(NS(=O)(=O)c2cccs2)C(=O)c2ccccc21 | 333 nM | 
6 | C=CCNC1=C(Cl)C(=O)c2ccccc2C1=O | 943 nM | 
7 | CCN1CCN(C2=C(Nc3ccc(F)cc3F)C(=O)c3ccccc3C2=O)CC1 | 3190 nM | 
8 | CCN1CCN(C2=C(NS(=O)(=O)c3ccc(Br)cc3)C(=O)c3ccccc3C2=O)CC1 | 4930 nM | 
9 | COC1=C(NS(=O)(=O)c2ccccc2)C(=O)c2ccccc2C1=O | 3980 nM | 
10 | COC1=C(NS(=O)(=O)c2ccc(Br)cc2)C(=O)c2ccccc2C1=O | 4440 nM | 
11 | O=C1C=C(NS(=O)(=O)c2ccccc2)C(=O)c2ccccc21 | 193 nM | 
12 | CC(C)N1CCN(C2=C(Nc3ccc(F)cc3F)C(=O)c3ccccc3C2=O)CC1 | 2020 nM | 
13 | O=C1C(Nc2ccc(Cl)cc2)=C(N2CCCC2)C(=O)c2ccccc21 | 10300 nM | 
14 | COC1=C(NS(=O)(=O)c2cccs2)C(=O)c2ccccc2C1=O | 4390 nM | 
15 | CN1CCN(C2=C(Nc3ccc(F)cc3F)C(=O)c3ccccc3C2=O)CC1 | 1150 nM | 
16 | O=C1C(NS(=O)(=O)c2cccs2)=C(c2ccccc2)C(=O)c2ccccc21 | 1680 nM | 
17 | NC1=CC(=O)c2ccccc2C1=O | 3410 nM | 
18 | O=C1C=C(Nc2ccccc2)C(=O)c2ccccc21 | 740 nM and 323 nM | 
19 | NC1=C(NS(=O)(=O)c2ccccc2)C(=O)c2ccccc2C1=O | 1850 nM | 
20 | NS(=O)(=O)c1ccc(NC2=CC(=O)c3ccccc3C2=O)cc1 | 163 nM | 
21 | CN1CCN(C2=C(NS(=O)(=O)c3ccc(Br)s3)C(=O)c3ccccc3C2=O)CC1 | 1130 nM | 
22 | COC1=C(Nc2ccccc2)C(=O)c2ccccc2C1=O | 336 nM | 
23 | O=C(NC1=C(Cl)C(=O)c2ccccc2C1=O)c1ccccc1 | 164 nM | 
24 | O=C1C(Nc2ccccc2)=C(c2ccccc2)C(=O)c2ccccc21 | 8180 nM | 
25 | COc1ccc(NC2=C(N3CCCCC3)C(=O)c3ccccc3C2=O)cc1 |  | 78% (inactive)
26 | CC(C)N1CCN(C2=C(Nc3ccc(F)cc3)C(=O)c3ccccc3C2=O)CC1 | 4910 nM | 
27 | CCN1CCN(C2=C(NC(=O)c3ccccc3)C(=O)c3ccccc3C2=O)CC1 | 1160 nM | 
28 | NC1=C(NS(=O)(=O)c2ccc(Br)s2)C(=O)c2ccccc2C1=O | 5240 nM | 
29 | NC1=C(NS(=O)(=O)c2ccc(Br)cc2)C(=O)c2ccccc2C1=O | 4090 nM | 
